Source: patent US20220160712A1, “METHODS OF TREATING RHEUMATOID ARTHRITIS AND FOR PREDICTING THE RESPONSE TO METHOTREXATE” (CHAN ZUCKERBERG BIOHUB, INC., priority 2020, published 2022)

Legend:
C. asparagiforme = experiment: RNA-seq after MTX treatment, with time course; type: cell-based, Clostridium asparagiforme; conditions: MTX 100 μg/ml
Protocol: Genomes were obtained from NCBI's GenBank Assembly database. Culture media was composed of BHI+and allowed to equilibrate in an anaerobic environment prior to use. Briefly, bacteria were cultured in BHI+at 37° C. in an anaerobic chamber. Cultures for each isolate were grown to mid-exponential (achieving an OD600˜0.5), aliquoted into triplicates, treated for 30 minutes with either DMSO or MTX 100 μg/ml, and then removed from the anaerobic chamber. The mid-exponential time point was selected to facilitate comparisons across isolates, as has been done by others (O'Rourke, A., et al. (2020), Antimicrob Agents Chemother 64), since lag and stationary phases would present challenges in term of biomass (lag phase with low biomass) and differing physiology (i.e., sporulation among some isolates and not others). For C. asparagiforme, cultures were incubated for 4 and 20 hours as well and profiled. Cultures were centrifuged at 2000 rpm for 10 minutes at 4° C. to facilitate removal of supernatant, and the remaining bacterial pellet was flash-frozen in liquid nitrogen.
Each bacterial pellet was incubated with 1 ml of Tri reagent (Sigma Aldrich, catalog #: T9424) at room temperature for 10 minutes. The cell suspension was transferred into Lysing Matrix E tubes (MP Biomedicals, 116914050), and homogenized in a bead-beater (Mini-Beadbeater-24, BioSpec) for 5 minutes at room temperature. The sample was incubated with 200 μL of chloroform at room temperature for 10 minutes, followed by centrifugation at 16,000×g for 15 minutes at 4° C. Next, 500 μL of the upper aqueous phase was transferred into a new tube and 500 μL of 100% ethanol was added. To isolate RNA, PureLink RNA Mini Kit (Life Technologies, catalog #: 12183025) was used. This mixture was transferred onto a PureLink spin column and spun at >12,000×g for 30 seconds. The column was washed with 350 μl of wash buffer I as described in the PureLink manual. The column was incubated with 80 μl of PureLink DNase (Life Technologies, catalog #: 12185010) at room temperature for 15 minutes, and washed with 350 μl of wash buffer I. The column was washed with wash buffer II twice as described in the PureLink manual. Total RNA was recovered in 50 μl of RNAase-free water. A second round of off-column DNAse treatment was undertaken. The RNA was incubated with 6 μl of TURBO DNAse (Ambion, ThermoFisher, catalog #: AM2238) at 37° C. for 30 minutes. To stop the reaction, 56 μl of lysis buffer from the PureLink kit and 56 μl of 100% ethanol was added to the sample and vortexed. This suspension was transferred onto a PureLink column and washed once with 350 μl of wash buffer I and twice with 500 μl of wash buffer II. The RNA was recovered in 30 μl of RNAse-free water.
(§1) Total RNA was subjected to rRNA depletion using Ribo-Zero Bacterial rRNA Depletion (Illumina, catalog #: MRZB12424), following the manufacturer's protocol. […] For each sample, fastq files are available in NCBI's Sequence Read Archive (SRA), accession number PRJNA656577.
(§2) Reads were trimmed using Trimmomatic (v0.32) (Bolger, A. M., et al., (2014), Bioinformatics 30, 2114-2120), and ribosomal reads were removed using SortMeRNA (v2.1) (Kopylova, E., et al., (2012), Bioinformatics 28, 3211-3217). Reads were mapped to reference genomes using Bowtie2 (Langmead, B., and Salzberg, S. L. (2012), Nat Methods 9, 357-359) using the following options: -q, —met file, —end-to-end, —sensitive. […]

B. theta = experiment: RNA-seq after MTX treatment; type: cell-based, Bacteroides thetaiotaomicron; conditions: MTX 100 μg/ml
Protocol: Genomes were obtained from NCBI's GenBank Assembly database. Culture media was composed of BHI+and allowed to equilibrate in an anaerobic environment prior to use. Briefly, bacteria were cultured in BHI+at 37° C. in an anaerobic chamber. Cultures for each isolate were grown to mid-exponential (achieving an OD600˜0.5), aliquoted into triplicates, treated for 30 minutes with either DMSO or MTX 100 μg/ml, and then removed from the anaerobic chamber. […]
as §1, §2

human gut microbiota = experiment: MTX treatment of gnotobiotic mice colonized with human stool; 16S-seq and qPCR of gut microbiota; type: in vivo; conditions: for gut microbial community structure, ANOSIM R: p=0.006; for shift in gut microbiota, ANOSIM R: Day 0 vs. 2
[1] = Donor 2, individually housed mice, MTX 50 mg/kg
[2] = combined gnotobiotic experiments, multi-factor design, padj<0.05, DESeq

With `CN(Cc1cnc2nc(N)nc(N)c2n1)c1ccc(C(=O)N[C@@H](CCC(=O)O)C(=O)O)cc1` [MTX, methotrexate] as the compound, how does the “number of pathways enriched” value (C. asparagiforme) read?
Its value is 23 pathways.

And the “number of differentially expressed genes” value (C. asparagiforme; 30 minutes, padj<0.2, DESeq)?
Its value is 468 genes.

And the “number of transcripts differentially expressed at all three timepoints” value (C. asparagiforme; 30 minutes, 4 and 20 hours, padj<0.2, DESeq)?
The value was 41.

What about the “DHFR or AICAR transformylase expression” value (C. asparagiforme; time course) of the same compound?
Its value is “no significant differences”.

What about the “adenylosuccinate synthase (ADSS) expression” value (C. asparagiforme; time course) of the same compound?
Its value is “significantly upregulated”.

What about the “genes in the transcriptome affected” value (B. theta; 30 minutes, padj<0.2, DESeq) of the same compound?
Its value is 83%.

What about the “number of pathways enriched among differentially expressed transcripts” value (B. theta; transcripts with padj<0.2) of the same compound?
The value was 57 pathways.

What about the “Total colonization (16S copy number per gram stool)” value (human gut microbiota; Donor 1 (healthy) humanized mice, oral vehicle, 1 mg/kg or 50 mg/kg MTX, 4 days) of the same compound?
Its value is “comparable between groups”.

What about the “microbial richness (number of ASVs)” value (human gut microbiota; Donor 1 humanized mice, oral vehicle, 1 mg/kg or 50 mg/kg MTX, 4 days) of the same compound?
Its value is “comparable between groups”.

And the “number of low-dose ASVs also altered in a consistent direction in the high-dose group” value (human gut microbiota; Donor 1 mice, 1 mg/kg and 50 mg/kg)?
The value was 19.

What about the “gut microbial community structure, ANOSIM R” value (human gut microbiota; Donor 1 mice, after 1 day of treatment) of the same compound?
The value was 0.60.

And the “gut microbial community structure, ANOSIM R” value (human gut microbiota; Donor 1 mice, final day of treatment)?
The value was 0.75.

And the “number of bacterial genera altered” value (human gut microbiota; Donor 1 mice, high-dose MTX 50 mg/kg)?
The value was 14.

What about the “Bacteroidetes phylum compared to vehicle controls” value (human gut microbiota; Donor 1 mice, high-dose MTX 50 mg/kg oral, Day 4 DESeq padj=0.001) of the same compound?
Its value is “significantly decreased”.

What about the “number of amplicon sequence variants (ASVs) altered” value (human gut microbiota; Donor 1 mice, high-dose MTX 50 mg/kg, DESeq padj<0.01, Day 4) of the same compound?
Its value is 81.

And the “number of ASVs significantly altered” value (human gut microbiota; Donor 1 mice, low-dose MTX 1 mg/kg)?
Its value is 26.

What about the “Bacteroidetes longitudinal trend, slope (generalized linear mixed-effects model)” value (human gut microbiota; Donor 1 mice, p=0.007) of the same compound?
The value was −0.066.

And the Microbial richness (human gut microbiota; Donor 2 (treatment naive RA patient), individually housed mice, MTX 50 mg/kg, p=0.4)?
The Microbial richness was “comparable between groups”.

And the “number of ASVs with changed abundance” value (human gut microbiota; [1])?
Its value is 23.

What about the “number of genera with changed abundance” value (human gut microbiota; [1]) of the same compound?
Its value is 8.

What about the phylum level changes (human gut microbiota; [1]) of the same compound?
Its phylum level changes is “No phylum level changes were detected”.

What about the “ASV23 (Bacteroides faecichinchillae/faecis/finegoldii/thetaiotaomicron) abundance” value (human gut microbiota; Donor 2, individually housed mice, high-dose MTX (FIG. 7B)) of the same compound?
Its value is “reduced”.

What about the “ASV296 (Lachnoclostridium) abundance” value (human gut microbiota; Donor 2, individually housed mice, high-dose MTX (FIG. 7C)) of the same compound?
Its value is “reduced”.

What about the “Dielma fastidiosa (ASV72) abundance” value (human gut microbiota; Donor 2, individually housed mice, high-dose MTX (FIG. 7D)) of the same compound?
Its value is “decreased”.

What about the “ASV908 (Paraprevotella) abundance” value (human gut microbiota; Donor 2, individually housed mice, high-dose MTX (FIG. 7E)) of the same compound?
The value was “increased”.

And the “number of ASVs with consistent shifts overlapping between route and rescue” value (human gut microbiota; Donor 3 mice, MTX 50 mg/kg)?
Its value is 41.

And the “shift in gut microbiota, ANOSIM R” value (human gut microbiota; Donor 3 mice, rescue experiment (oral MTX with or without folic acid), p=0.002)?
The value was 0.99.

What about the “shift in gut microbiota, ANOSIM R” value (human gut microbiota; Donor 3 mice, route experiment (oral or IP MTX 50 mg/kg), p=0.007) of the same compound?
Its value is 0.89.

And the “number of ASVs differentially abundant” value (human gut microbiota; [2])?
Its value is 61.

What about the “number of genera differentially abundant” value (human gut microbiota; [2]) of the same compound?
The value was 31.

What about the “number of phyla differentially abundant” value (human gut microbiota; [2]) of the same compound?
The value was “Four”.

What about the a-diversity (human gut microbiota; combined gnotobiotic experiments, p>0.05, ANOVA) of the same compound?
The a-diversity was “not affected”.
